Laboratory results from PMC2790607, “Finding of the Low Molecular Weight Inhibitors of Resuscitation Promoting Factor Enzymatic and Resuscitation Activity” (PLoS ONE, 2009).
≈ marks a conversion by molar mass, not a printed value. Read-outs that look alike come from different tables or passages of the source.

Assays:
ΔDUFRpf B = ΔDUFRpf B (Mycobacterium tuberculosis, UniProt P9WG29); assay type: binding, M. tuberculosis
Rpf Sm = target: T1, Rpf Sm (Micrococcus luteus, UniProt O86308); assay: Muralytic activity of Rpf, 4-MUF-3-NAG hydrolysis; assay type: biochemical, M. luteus
T1 construct: His-tag (inferred from the pET19b vector and the Ni2+-chelation purification); made in house; host or cells: E. coli HSM174 (DE3)
Method: The truncated form of M.luteus Rpf (RpfSm) was used for the analysis. The truncated protein contained conserved Rpf domain and additional 20 amino acids of the gene product, corresponding to the following amino acid sequence:
To determine a muralytic activity of the recombinant Rpfs', 4-methylumbelliferyl-β-D-N, N′, N″-triacetylchitotrioside (4-MUF-3-NAG) (“Sigma”, Germany) was applied. […] A number of experiments were performed in the presence of NPT compounds, in concentration range of 0.5–10 µg/ml. After 3 hours of incubation at 37°C, 2 µl of 10 M NaOH was added and the samples were frozen and kept at −20°C. […] The intensity of fluorescence was detected by the RF-5301PC fluorimeter (“SHIMADZU”, Japan) using excitation wavelength of 364 nm and a read-out of 448 nm.

[1] = test system: M. tuberculosis "non-culturable" cells; assay type: cell-based, Mycobacterium tuberculosis; conditions: for effect on resuscitation of M. tuberculosis "non-culturable" cells: 10 µg/ml, MPN assay, versus untreated resuscitating cells; for MPN, logarithmic transformation of cell concentration (cells/ml): inhibitor 10 µg/ml
Micrococcus luteus = assay: microbe, parasite or virus in culture; assay type: cell-based; conditions: for MIC: Micrococcus luteus, lowest concentration which suppresses growth, determined during 24 hours, NI = no inhibition was observed; for effect on M. luteus growth: NB liquid medium
M. smegmatis = assay type: cell-based, Mycobacterium smegmatis; conditions: at 0.1–1 µg/ml (not shown)
[2] = test system: M. smegmatis "non-culturable" cells; assay type: cell-based, Mycobacterium smegmatis; conditions: MPN assay
Trypsin(3.4.21.4) = assay: Trypsin activity (fluorimetric); assay type: biochemical; conditions: control 10
Method: (§1) Alcoholdehydrohenase(1.1.1.1) activity: ADH was dissolved in 50 mM phospahe buffer pH 7 at the concentration 10 µg/ml. The rate of the reaction was judged by transformation of NAD^+ (1 mM) into NADH+H^+. As the substrate ethanol was used. Activity was measured by OD340. Laccase(1.10.3.2) activity: Laccase was dissolved in the 50 mM citrate-phosphate buffer, pH4.5 at concentration 9 µg/ml. Pyrocatechin was used at concentration 11 µg/ml. Activity was measured by OD410. Trypsin(3.4.21.4) activity: The enzyme at concentration 8.0 µg/ml was dissolved in 50 mM Tris-HCl buffer pH 8.0. Concentration of the substrate (N-CBz-Gly-Gly-Arg-β-naphthylamide - Sigma-Aldrich)- 11 µg/ml. Registration of the kinetic curves was made fluorimetrically - excitation wavelength - 330 nm; emission - 420 nm. (0.02 MB DOC) Click here for additional data file.

Laccase(1.10.3.2) = assay: Laccase activity (pyrocatechin, OD410); assay type: biochemical; conditions: control 3.6
Method: as §1

[3] = test system: Alcoholdehydrohenase(1.1.1.1); assay: Alcoholdehydrogenase activity (NAD+ to NADH, OD340); assay type: biochemical; conditions: control 1.7
Method: as §1

[4] = pH 6.0, 3 hours at 37°C, NI = no inhibition was observed, read-out: 4-MUF-3-NAG hydrolysis IC50, Rpf Sm (converted)

T1 sequence (O86308 42-134): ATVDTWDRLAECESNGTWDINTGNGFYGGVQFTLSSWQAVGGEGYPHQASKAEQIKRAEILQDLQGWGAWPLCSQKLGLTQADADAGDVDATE
Sequence of ΔDUFRpf B (P9WG29 whole entry, looked up, stated change not applied): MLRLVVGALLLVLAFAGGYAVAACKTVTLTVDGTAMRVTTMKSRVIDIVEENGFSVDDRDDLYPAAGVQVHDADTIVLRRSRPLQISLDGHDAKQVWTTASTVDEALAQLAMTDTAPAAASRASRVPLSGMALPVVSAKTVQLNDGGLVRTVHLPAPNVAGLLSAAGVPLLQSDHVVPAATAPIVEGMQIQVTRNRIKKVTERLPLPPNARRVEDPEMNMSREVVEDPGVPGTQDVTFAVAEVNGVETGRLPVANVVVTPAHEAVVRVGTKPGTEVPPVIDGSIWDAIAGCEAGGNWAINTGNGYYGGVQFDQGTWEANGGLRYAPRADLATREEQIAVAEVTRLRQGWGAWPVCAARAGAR

| Compound | IC50 (Rpf Sm; [4]) | effect on resuscitation of M. tuberculosis "non-culturable" cells [1] | MPN, logarithmic transformation of cell concentration (cells/ml) ([1]; time 0 days) | MPN, logarithmic transformation of cell concentration (cells/ml) ([1]; time 14 days) | MPN, logarithmic transformation of cell concentration (cells/ml) ([1]; time 19 days) | MPN, logarithmic transformation of cell concentration (cells/ml) ([1]; time 21 days) | MPN, logarithmic transformation of cell concentration (cells/ml) ([1]; time 23 days) | MPN, logarithmic transformation of cell concentration (cells/ml) ([1]; time 27 days) | MPN, logarithmic transformation of cell concentration (cells/ml) ([1]; time 30 days) | MPN, logarithmic transformation of cell concentration (cells/ml) ([1]; time 33 days) | MPN, logarithmic transformation of cell concentration (cells/ml) ([1]; time 36 days) | MPN, logarithmic transformation of cell concentration (cells/ml) ([1]; time 40 days) | MIC (Micrococcus luteus) | melting point | growth of active cells of M. smegmatis (M. smegmatis) | concentrations active in suppressing resuscitation of M. smegmatis [2] | IC50 (Rpf Sm) | other results |
| --- | --- | --- | --- | --- | --- | --- | --- | --- | --- | --- | --- | --- | --- | --- | --- | --- | --- | --- |
| [I-].[K+] [iodide, reference compound] | – | – | – | – | – | – | – | – | – | – | – | – | – | – | – | – | – | accessible fraction of ΔDUFRpfB tryptophanes (fa) (ΔDUFRpf B; modified Stern-Volmer equation, excitation 280 nm, emission 340 nm): ~40% |
| CCOC(=O)c1ccc(SC#N)c([N+](=O)[O-])c1 [X, 3-nitro-4-thiocyanatobenzoic acid ethyl ester] | 10.3 µM | increased time which need for developing of visible growth in the MPN assay and decreased the final values of MPN | 3.48 | 3.48 | 3.48 | 3.48 | 3.48 | 4.36 | 4.97 | 5.38 | 5.38 | 5.38 | 10 µg/mL (≈ 39.6 µM) | – | – | – | – | – |
| N#CSc1ccc(C(F)(F)F)cc1[N+](=O)[O-] [IV, 2-Nitro-4-(trifluoromethyl)-phenylthiocyanate] | 21.4 µM | increased time which need for developing of visible growth in the MPN assay and decreased the final values of MPN | 3.48 | 3.48 | 3.56 | 3.96 | 4.36 | 5.38 | 5.66 | 5.66 | 5.66 | 5.66 | 5 µg/mL (≈ 20.1 µM) | 78 to 81 °C | did not inhibit growth | 0.1 to 1 µg/mL | – | – |
| COC(=O)c1ccc(SC#N)c([N+](=O)[O-])c1 [IX, 3-Nitro-4-thiocyanatobenzoic acid methyl ester] | – | increased time which need for developing of visible growth in the MPN assay and decreased the final values of MPN | 3.48 | 3.48 | 3.48 | 3.56 | 3.96 | 4.32 | 5.66 | 5.66 | 5.66 | 5.66 | 5 to 10 µg/mL (≈ 21 to 42 µM) | – | did not inhibit growth | 0.1 to 1 µg/mL | 23.5 µM | – |
| CC(C)Nc1ncnc(SC#N)c1[N+](=O)[O-] [II, 4-Isopropylamino-5-nitro-6-thiocyanatopyrimidine] | – | – | – | – | – | – | – | – | – | – | – | – | – | 96 to 98 °C | – | – | – | effect on M. luteus growth (Micrococcus luteus): had no effect on M. luteus growth |
| N#CSc1cc(SC#N)c([N+](=O)[O-])cc1[N+](=O)[O-] [III, 1,5-Dinitro-2,4-dithiocyanatobenzene] | 4.25 µM | practically did not influence resuscitation | 3.48 | 3.48 | 3.86 | 4.63 | 4.63 | 5.66 | 6.38 | 6.38 | 6.38 | 6.38 | 5 µg/mL (≈ 17.7 µM) | 78 to 80 °C | did not inhibit growth | 0.1 to 1 µg/mL | – | τ1/2, time needed to achieve a 50% level of substrate conversion, Trypsin (Trypsin(3.4.21.4); compound 4 µg/ml): 10 s; τ1/2, time needed to achieve a 50% level of substrate conversion, Trypsin (Trypsin(3.4.21.4); compound 10 µg/ml): 10 s; τ1/2, time needed to achieve a 50% level of substrate conversion, Laccase (Laccase(1.10.3.2); compound 4 µg/ml): 3.6 s; τ1/2, time needed to achieve a 50% level of substrate conversion, Laccase (Laccase(1.10.3.2); compound 10 µg/ml): 3.5 s; τ1/2, time needed to achieve a 50% level of substrate conversion, Alchoholdehydrohenase ([3]; compound 4 µg/ml): 1.7 s; τ1/2, time needed to achieve a 50% level of substrate conversion, Alchoholdehydrohenase ([3]; compound 10 µg/ml): 1.7 s |
| N#CSc1ccc(C#N)cc1[N+](=O)[O-] [V, 3-Nitro-4-thiocyanobenzonitryl] | – | – | 3.48 | 3.48 | 3.48 | 3.48 | 3.48 | 3.86 | 4.30 | 5.66 | 5.66 | 5.66 | 1 to 5 µg/mL (≈ 4.87 to 24.4 µM) | 143 to 145 °C | – | – | 25.3 µM | – |
| CC(=O)c1ccc(SC#N)c([N+](=O)[O-])c1 [VI, 4-Acetyl-2-nitrophenyl thiocyanate] | – | – | 3.48 | 3.48 | 3.48 | 3.48 | 3.56 | 3.96 | 4.66 | 5.38 | 5.97 | 6.18 | 5 µg/mL (≈ 22.5 µM) | 96 to 98 °C | – | – | 9.9 µM | – |
| COc1ncnc(SC#N)c1[N+](=O)[O-] [I, 4-Methoxy-5-nitro-6-thiocyanatopyrimidine] | 25 µM | had no influence on the resuscitation kinetics | – | – | – | – | – | – | – | – | – | – | – | 54 to 56 °C | – | – | – | – |
| N#CSc1ccc(C(=O)O)cc1[N+](=O)[O-] [VIII, 3-Nitro-4-thiocyanatobenzoic acid] | – | had no influence on the resuscitation kinetics | – | – | – | – | – | – | – | – | – | – | – | 220 to 224 °C | – | – | – | interaction with the buried tryptophanes of ΔDUFRpfB (ΔDUFRpf B; fluorescence studies): doesn't interact with the buried tryptophanes; effect on resuscitation of M. smegmatis "non-culturable" cells ([2]; inhibitors at 1 µg/ml, 2 weeks at 37°C): failure; effect on M. luteus growth (Micrococcus luteus): had no effect on M. luteus growth |
